Experimental data: PubChem BioAssay AID2060887 (Molecular Pharmacology Branch, DTP, NCI, 2025)

Tested on: 782815-120-R-J1-PDC complex spheroid viability
Test: Anticancer human tumor 782815-120-R-J1-PDC patient-derived colon adenocarcinoma cell line growth inhibition [RAS]
Settings: for IC50: curve of first compound; for viability, T/C: stronger effect = lower value
Outline: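 Tumour cells grown as complex spheroids with HUVEC endothelial cells and mesenchymal stem cells, treated with RAS pathway inhibitor combinations. Each agent spans half-log steps from near clinical Cmax, or 10 microM where Cmax is unknown.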

[1] = second compound 0.000949 µM, first compound 0.0316 µM
[2] = second compound 0.000949 µM, first compound 0.1 µM
[3] = second compound 0.000949 µM, first compound 0.316 µM
[4] = second compound 0.000949 µM, first compound 1 µM
[5] = second compound 0.003 µM, first compound 0.0316 µM
[6] = second compound 0.003 µM, first compound 0.1 µM
[7] = second compound 0.003 µM, first compound 0.316 µM
[8] = second compound 0.003 µM, first compound 1 µM
[9] = second compound 0.00949 µM, first compound 0.0316 µM
[10] = second compound 0.00949 µM, first compound 0.1 µM
[11] = second compound 0.00949 µM, first compound 0.316 µM
[12] = second compound 0.00949 µM, first compound 1 µM
[13] = second compound 0.03 µM, first compound 0.0316 µM
[14] = second compound 0.03 µM, first compound 0.1 µM
[15] = second compound 0.03 µM, first compound 0.316 µM
[16] = second compound 0.03 µM, first compound 1 µM
[17] = second compound 0.0949 µM, first compound 0.0316 µM
[18] = second compound 0.0949 µM, first compound 0.1 µM
[19] = second compound 0.0949 µM, first compound 0.316 µM
[20] = second compound 0.0949 µM, first compound 1 µM
[21] = second compound 0.3 µM, first compound 0.0316 µM
[22] = second compound 0.3 µM, first compound 0.1 µM
[23] = second compound 0.3 µM, first compound 0.316 µM
[24] = second compound 0.3 µM, first compound 1 µM
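Further: spheroids exposed to compounds for 7 days before reading.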
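Wherever viability, T/C is given: 100% = DMSO vehicle control viability.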

## C[C@@H](NC(=O)c1ncnc(N)c1Cl)c1ncc(C(=O)Nc2cc(C(F)(F)F)c(Cl)cn2)s1 + CCn1c(-c2cc(N3CCN(C)CC3)cnc2C(C)OC)c2c3cc(ccc31)-c1csc(n1)CC(NC(=O)C1CC1C)C(=O)N1CCCC(N1)C(=O)OCC(C)(C)C2
Second compound 0.000949 µM
  IC50: > 10000 nM
Second compound 0.003 µM
  IC50: > 10000 nM
Second compound 0.00949 µM
  IC50: < 31.6 nM
Second compound 0.03 µM
  IC50: < 31.6 nM
Second compound 0.0949 µM
  IC50: < 31.6 nM
Second compound 0.3 µM
  IC50: < 31.6 nM
[1]
  viability, T/C: 82.2%
[2]
  viability, T/C: 95.5%
[3]
  viability, T/C: 76.9%
[4]
  viability, T/C: 73.4%
Second compound 0.000949 µM, first compound 3.16 µM
  viability, T/C: 58.8%
Second compound 0.000949 µM, first compound 10 µM
  viability, T/C: 66.8%
[5]
  viability, T/C: 74.1%
[6]
  viability, T/C: 69.4%
[7]
  viability, T/C: 62.9%
[8]
  viability, T/C: 60.5%
Second compound 0.003 µM, first compound 3.16 µM
  viability, T/C: 55.1%
Second compound 0.003 µM, first compound 10 µM
  viability, T/C: 54.7%
[9]
  viability, T/C: 47.9%
[10]
  viability, T/C: 50.3%
[11]
  viability, T/C: 47.7%
[12]
  viability, T/C: 46.6%
Second compound 0.00949 µM, first compound 3.16 µM
  viability, T/C: 47%
Second compound 0.00949 µM, first compound 10 µM
  viability, T/C: 44.6%
[13]
  viability, T/C: 25.8%
[14]
  viability, T/C: 33%
[15]
  viability, T/C: 32%
[16]
  viability, T/C: 31.9%
Second compound 0.03 µM, first compound 3.16 µM
  viability, T/C: 37.6%
Second compound 0.03 µM, first compound 10 µM
  viability, T/C: 35.9%
[17]
  viability, T/C: 19.7%
[18]
  viability, T/C: 23.8%
[19]
  viability, T/C: 25.3%
[20]
  viability, T/C: 27.1%
Second compound 0.0949 µM, first compound 3.16 µM
  viability, T/C: 30.8%
Second compound 0.0949 µM, first compound 10 µM
  viability, T/C: 27.6%
[21]
  viability, T/C: 18.6%
[22]
  viability, T/C: 20.7%
[23]
  viability, T/C: 23.1%
[24]
  viability, T/C: 21.9%
Second compound 0.3 µM, first compound 3.16 µM
  viability, T/C: 26.4%
Second compound 0.3 µM, first compound 10 µM
  viability, T/C: 27.9%

## C=CC(=O)Nc1cc(Nc2nccc(-c3cn(C)c4ccccc34)n2)c(OC)cc1N(C)CCN(C)C + CCn1c(-c2cccnc2C(C)OC)c2c3cc(ccc31)N1CCOC(CC(NC(=O)C(C(C)C)N(C)C(=O)C3(F)CCN(C(=O)C#CC(C)(C)N(C)C)CC3)C(=O)N3CCCC(N3)C(=O)OCC(C)(C)C2)C1
Second compound 0.000949 µM
  IC50: > 1000 nM
Second compound 0.003 µM
  IC50: > 1000 nM
Second compound 0.00949 µM
  IC50: > 1000 nM
Second compound 0.03 µM
  IC50: > 1000 nM
Second compound 0.0949 µM
  IC50: > 1000 nM
Second compound 0.3 µM
  IC50: > 1000 nM
Second compound 0.000949 µM, first compound 0.00316 µM
  viability, T/C: 102%
Second compound 0.000949 µM, first compound 0.01 µM
  viability, T/C: 97.7%
[1]
  viability, T/C: 99.6%
[2]
  viability, T/C: 103%
[3]
  viability, T/C: 87.2%
[4]
  viability, T/C: 84%
Second compound 0.003 µM, first compound 0.00316 µM
  viability, T/C: 102%
Second compound 0.003 µM, first compound 0.01 µM
  viability, T/C: 91.1%
[5]
  viability, T/C: 90.9%
[6]
  viability, T/C: 91.9%
[7]
  viability, T/C: 93.8%
[8]
  viability, T/C: 83.2%
Second compound 0.00949 µM, first compound 0.00316 µM
  viability, T/C: 96.9%
Second compound 0.00949 µM, first compound 0.01 µM
  viability, T/C: 92.8%
[9]
  viability, T/C: 94.2%
[10]
  viability, T/C: 96.5%
[11]
  viability, T/C: 100%
[12]
  viability, T/C: 84.3%
Second compound 0.03 µM, first compound 0.00316 µM
  viability, T/C: 86.4%
Second compound 0.03 µM, first compound 0.01 µM
  viability, T/C: 92.8%
[13]
  viability, T/C: 96.3%
[14]
  viability, T/C: 86.4%
[15]
  viability, T/C: 93%
[16]
  viability, T/C: 86.1%
Second compound 0.0949 µM, first compound 0.00316 µM
  viability, T/C: 94.2%
Second compound 0.0949 µM, first compound 0.01 µM
  viability, T/C: 94.8%
[17]
  viability, T/C: 85.3%
[18]
  viability, T/C: 97.3%
[19]
  viability, T/C: 106%
[20]
  viability, T/C: 86.4%
Second compound 0.3 µM, first compound 0.00316 µM
  viability, T/C: 85.1%
Second compound 0.3 µM, first compound 0.01 µM
  viability, T/C: 88%
[21]
  viability, T/C: 96.7%
[22]
  viability, T/C: 88.7%
[23]
  viability, T/C: 97%
[24]
  viability, T/C: 73.8%
